Laboratory results as given in patent US20250000874A1, “BACTERIAL METABOLITES AND THEIR USE IN REDUCING INFLAMMATION” (LOYOLA UNIVERSITY OF CHICAGO, priority 2023, published 2025).

Tested on: NLRP3 inflammasome
Assay: JE on IL-1β production and caspase-1 activation by BMDMs upon NLRP3 activation
Format: cell-based, mouse
Conditions: for IL-1β production upon NLRP3 activation with ATP: 5 mM ATP
Method: (§1) FIG. 19. The Effect of JE on IL-1β Production by BMDMs Upon NLRP3 Activation. Macrophages were pretreated with the metabolite JE at a concentration of 50 μM overnight at 37° C., 5% CO2. The following day, macrophages were primed with LPS at 500 ng/ml for 4 hours and then activated by ATP for 1 hour at 37° C., 5% CO2. Another approach is to prime the cells with 10 ng/ml LPS for 4 hours, then pretreat with JE overnight. The following day, macrophages were activated with 5 mM ATP for an hour at 37° C., 5% CO2. Supernatants were collected, and […] was measured using ELISA. Data are presented as mean±SEM (n=6). **p<0.01. One of three experiments is shown.
as §1, with “20.” for “19.”
FIG. 21. The Impact of JE on Caspase-1 Activation After Priming the Cells with LPS. BMDMs were cultured and seeded as described before. Macrophages were first primed with LPS for 4 hours at 37° C. with 5% CO2. After that, they were treated with the metabolite JE for 1 (LPS1ATP), 2 (LPS2ATP), and 3 (LPS3ATP) hours. Then, the cells were exposed to media containing 5 mM ATP for 1 hour at 37° C. with 5% CO2. Finally, the supernatants were collected and the level of IL-1β was measured using ELISA. Data are presented as mean±SEM (n=6). *p<0.05; ***p<0.001. One of two experiments is shown.
Next, we explored how JE inhibits caspase-1 activation as well as IL-1β production. As stated above, NLRP3 activation adopts a two-step dogma: priming with LPS, followed by activation by ATP, nigericin, or MSU crystals. […] To achieve that, JE was used to pretreat BMDMs overnight at 37° C., 5% CO2; the next day, macrophages were primed with LPS for 4 hours, then stimulated with ATP for an hour. I collected the supernatant and measured IL-1β by ELISA.
In an attempt to determine whether JE inhibits the priming or the activation step, BMDMs were stimulated with LPS, then the metabolite JE was used to treat the cells overnight at 37° C., 5% CO2. The following day, macrophages were stimulated with ATP for an hour, then, supernatant was collected to measure IL-1β by ELISA. PBS was used as a control to JE in this experiment. In both conditions, I did a western blot on caspase-1 to elucidate whether JE inhibits caspase-1 activation or not.
It was also evident by the absence of active caspase-1 in the supernatant on western blot analysis (data not shown). To determine whether JE inhibits the activation signal, instead of pretreating the macrophages with JE overnight. BMDMs were treated with the metabolite JE for 1 hour, 2 hours, and 3 hours after priming with LPS for 4 hours; then 5 mM of ATP was.

## CC(=O)O[C@@H]1CC[C@H]2[C@H]3CC[C@H]4CC(F)(F)CC[C@]4(C)[C@H]3CC[C@]12C [JE, 3,3-Difluoro-5-alpha-androstan-17-beta-yl acetate]
JE 50 μM pretreatment overnight, LPS priming 4 hours, ATP 1 hour
  IL-β upon activation of NLRP3 inflammasome: completely abolished
JE for 1 hour after priming with LPS 4 hours
  IL-1β production upon NLRP3 activation with ATP: did not have the same effect
JE for 2 hours after priming with LPS 4 hours
  IL-1β production upon NLRP3 activation with ATP: did not have the same effect
JE for 3 hours after priming with LPS 4 hours
  IL-1β production upon NLRP3 activation with ATP: significantly decrease
JE pretreatment, LPS priming, ATP
  active caspase-1 in the supernatant (western blot): absence
